pKi: −log10 of the molar value. Square brackets hold non-standard residues; d marks the D form. Peptide text beside a SMILES is read from it. * marks the point of attachment. ξ: configuration not given here. ξPhe(2-I) = NC(Cc1ccccc1I)C(=O)O; Nphe = O=C(O)CNCc1ccccc1; Boc = CC(C)(C)OC(=O)*
How the values were obtained:
[1] = target: Kappa-type opioid receptor (Homo sapiens, UniProt P41145); test: Displacement of [3H]U69593 from human KOR expressed in HEK cell membranes assessed as inhibition constant incubated for 60 mins by microbeta 2 scintillation counting method; set-up: species or system Cell membrane
Kappa-type opioid receptor, sequence (P41145 whole entry): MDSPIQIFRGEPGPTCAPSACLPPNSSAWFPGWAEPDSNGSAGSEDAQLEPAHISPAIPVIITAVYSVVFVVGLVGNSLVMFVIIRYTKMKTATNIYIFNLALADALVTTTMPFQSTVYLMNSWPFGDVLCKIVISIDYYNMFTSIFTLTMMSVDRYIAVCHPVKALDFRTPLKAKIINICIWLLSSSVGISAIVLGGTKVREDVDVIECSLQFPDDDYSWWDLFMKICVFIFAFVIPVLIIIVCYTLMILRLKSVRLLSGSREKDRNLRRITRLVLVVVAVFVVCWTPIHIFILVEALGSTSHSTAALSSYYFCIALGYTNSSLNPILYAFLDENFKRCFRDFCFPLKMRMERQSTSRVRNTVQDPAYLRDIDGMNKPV

[2] = target: Delta-type opioid receptor (Homo sapiens, UniProt P41143); test: Displacement of [3H]DADLE from human DOR expressed in CHO cell membranes assessed as inhibition constant incubated for 60 mins by microbeta 2 scintillation counting method; set-up: species or system Cell membrane
Delta-type opioid receptor, sequence (P41143 whole entry): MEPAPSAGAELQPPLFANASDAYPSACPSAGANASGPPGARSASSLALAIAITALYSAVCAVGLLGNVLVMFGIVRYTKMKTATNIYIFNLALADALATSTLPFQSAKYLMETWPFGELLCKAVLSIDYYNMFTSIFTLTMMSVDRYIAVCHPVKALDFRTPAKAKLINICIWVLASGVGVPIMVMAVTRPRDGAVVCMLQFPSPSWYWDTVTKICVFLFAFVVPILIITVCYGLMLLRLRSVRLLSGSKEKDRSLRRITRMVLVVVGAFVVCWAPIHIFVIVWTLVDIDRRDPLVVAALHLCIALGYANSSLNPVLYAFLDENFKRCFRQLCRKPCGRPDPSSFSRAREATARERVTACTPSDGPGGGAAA

Mu-type opioid receptor = Mu-type opioid receptor (Homo sapiens, UniProt P35372); test: Displacement of [3H]DAMGO from human MOR expressed in CHO cell membranes assessed as inhibition constant incubated for 60 mins by microbeta 2 scintillation counting method; set-up: species or system Cell membrane
Mu-type opioid receptor, sequence (P35372 whole entry): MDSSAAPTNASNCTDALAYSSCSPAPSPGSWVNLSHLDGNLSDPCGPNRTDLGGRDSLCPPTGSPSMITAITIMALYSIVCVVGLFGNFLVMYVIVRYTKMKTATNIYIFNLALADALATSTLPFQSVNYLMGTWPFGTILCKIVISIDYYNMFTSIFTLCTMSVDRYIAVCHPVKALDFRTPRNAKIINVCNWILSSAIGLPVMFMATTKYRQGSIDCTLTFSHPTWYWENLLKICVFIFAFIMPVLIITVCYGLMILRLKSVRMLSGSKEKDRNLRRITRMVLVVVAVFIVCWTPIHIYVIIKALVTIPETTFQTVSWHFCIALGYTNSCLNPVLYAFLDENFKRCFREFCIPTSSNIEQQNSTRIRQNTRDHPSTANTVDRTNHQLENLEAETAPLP

Homo sapiens [3] = organism: Homo sapiens; test: Selectivity ratio of Ki for displacement of [3H]DADLE from human DOR expressed in CHO cell membranes to Ki for displacement of [3H]U69593 from human KOR expressed in HEK cell membranes
Homo sapiens [4] = organism: Homo sapiens; test: Selectivity ratio of Ki for displacement of [3H]DAMGO from human MOR expressed in CHO cell membranes to Ki for displacement of [3H]U69593 from human KOR expressed in HEK cell membranes
[5] = Plasma protein binding in mouse assessed as bound fraction at 1 uM by LC-MS/MS analysis; assay type: ADME, cell-free
[6] = Metabolic stability in CD-1 mouse plasma assessed as half life at 100 uM measured upto 24 hrs by LC-MS/MS analysis; assay type: ADME, cell-free
[7] = Metabolic stability in human plasma assessed as half life at 100 uM measured upto 24 hrs by LC-MS/MS analysis; assay type: ADME, cell-free; settings: for t1/2: 24 h, 100 µM
BEND3 = test: Apparent permeability coefficient of the compound across blood brain barrier in mouse BEND3 cells at 10 ug/ml measured upto 120 mins by LC-MS/MS analysis; assay type: functional, cell-based; settings: dose 10.0 µg/ml
[8] = Metabolic stability in Sprague-Dawley rat plasma assessed as half life at 100 uM measured upto 24 hrs by LC-MS/MS analysis; assay type: ADME, cell-free
[9] = Metabolic stability in Beagle dog plasma assessed as half life at 100 uM measured upto 24 hrs by LC-MS/MS analysis; assay type: ADME, cell-free, Canis lupus familiaris; settings: for t1/2: 24 h, 100 µM
[10] = Plasma protein binding in rat assessed as bound fraction at 1 uM by LC-MS/MS analysis; assay type: ADME, cell-free
[11] = Metabolic stability in Sprague-Dawley rat liver microsomes assessed as intrinsic clearance at 100 uM measured upto 24 hrs in presence of NADPH by LC-MS/MS analysis; assay type: ADME, Microsome
[12] = Plasma protein binding in dog assessed as bound fraction at 1 uM by LC-MS/MS analysis; assay type: ADME, cell-free, Canis lupus familiaris
[13] = Plasma protein binding in human assessed as bound fraction at 1 uM by LC-MS/MS analysis; assay type: ADME, cell-free

pKi [1] | pKi [2] | pKi (Mu-type opioid receptor) | Structure (SMILES) | Ratio Ki (Homo sapiens [3]) | Ratio Ki (Homo sapiens [4]) | other results
< 5.00 | < 5.00 | < 5.00 | Cc1cccc(CC2NC(=O)CN(Cc3ccccc3)C2=O)c1I (configuration not stated) | – | – | –
6.10 | < 5.00 | < 5.00 | COC(=O)C(Cc1cccc(OC)c1I)NC(=O)CNCCc1ccccc1 (configuration not stated) | > 12 | > 12 | –
< 5.00 | < 5.00 | < 5.00 | COC(=O)C(Cc1ccccc1I)NC(=O)CNCc1ccccc1 (configuration not stated) (H-[Nphe]-[ξPhe(2-I)]-OMe) | – | – | –
6.22 | < 5.00 | < 5.00 | COc1cccc(CC2NC(=O)CN(Cc3ccccc3)C2=O)c1C (configuration not stated) | > 17 | > 17 | PPB [5]: 86.29%; half-life at 100 µM [6]: > 24 h; half-life at 100 µM [7]: > 24 h; Pe (BEND3): 5.99 10^-3cm/min; half-life at 100 µM [8]: > 24 h; half-life at 100 µM ([9]; Beagle): > 24 h; PPB [10]: 76.34%; Intrinsic clearance [11]: 337.2 µL/min/mg; PPB [12]: 86.67%; PPB [13]: 80.46%
< 5.00 | < 5.00 | < 5.00 | COC(=O)C(Cc1cccc(OC)c1I)NC(=O)CNCc1cccnc1 (configuration not stated) | – | – | –
5.38 | < 5.00 | 5.36 | COC(=O)C(Cc1ccccc1I)NC(=O)CN(Cc1ccccc1)C(=O)OC(C)(C)C (configuration not stated) (Boc-[Nphe]-[ξPhe(2-I)]-OMe) | – | – | –
5.91 | < 5.00 | < 5.00 | COC(=O)C(Cc1cccc(OC)c1I)NC(=O)CCNCc1ccccc1 (configuration not stated) | > 8 | > 8 | –
6.59 | < 5.00 | < 5.00 | COC(=O)C(Cc1cccc(OC)c1I)NC(=O)CN(C)Cc1ccccc1 (configuration not stated) | > 40 | > 40 | –
– | – | – | Cn1c(=O)c2c(ncn2C)n(C)c1=O | – | – | Pe (BEND3): 28.1 10^-3cm/min
< 5.00 | < 5.00 | < 5.00 | COc1cccc(CC2NC(=O)CNC2=O)c1I (configuration not stated) | – | – | –
< 5.00 | < 5.00 | < 5.00 | COc1cccc(CC2NC(=O)CN(CC=C(C)C)C2=O)c1I (configuration not stated) | – | – | –
< 5.00 | < 5.00 | < 5.00 | CNCC(=O)NC(Cc1cccc(OC)c1I)C(=O)OC (configuration not stated) | – | – | –
< 5.00 | < 5.00 | < 5.00 | COC(=O)C(Cc1cccc(OC)c1I)NC(=O)CCCc1ccccc1 (configuration not stated) | – | – | –
< 5.00 | < 5.00 | < 5.00 | COc1cccc(CC2NC(=O)[C@@H]3CCCN3C2=O)c1I (some centres not stated) | – | – | –
6.72 | < 5.00 | < 5.00 | COC(=O)C(Cc1cccc(OC)c1C)NC(=O)CNCc1ccccc1 (configuration not stated) | > 53 | > 53 | half-life at 100 µM [6]: < 0.0167 h; t1/2 [7]: 2.5282 h; Pe (BEND3): 6.25 10^-3cm/min; half-life at 100 µM [8]: < 0.0167 h; t1/2 [9]: 4.321 h; Intrinsic clearance [11]: 1112 µL/min/mg; PPB [12]: 94.28%; PPB [13]: 89.36%
6.56 | < 5.00 | < 5.00 | COC(=O)C(Cc1cccc(OC)c1I)NC(=O)CNCc1ccccc1 (configuration not stated) | > 36 | > 36 | half-life at 100 µM [6]: < 0.0167 h; t1/2 [7]: 2.1762 h; Pe (BEND3): 8.75 10^-3cm/min; half-life at 100 µM [8]: < 0.0167 h; t1/2 [9]: 3.6808 h; Intrinsic clearance [11]: 1928 µL/min/mg; PPB [12]: 97.09%; PPB [13]: 90.8%
6.91 | < 5.00 | < 5.00 | COC(=O)C(Cc1cccc(C)c1I)NC(=O)CNCc1ccccc1 (configuration not stated) | > 81 | > 81 | half-life at 100 µM [6]: < 0.0167 h; t1/2 [7]: 2.4577 h; Pe (BEND3): 21.5 10^-3cm/min; half-life at 100 µM [8]: < 0.0167 h; t1/2 [9]: 3.8202 h; Intrinsic clearance [11]: 1889 µL/min/mg; PPB [13]: 97.86%
< 5.00 | < 5.00 | < 5.00 | COC(=O)C(Cc1cccc(OC)c1I)NC(=O)CN (configuration not stated) | – | – | –
5.66 | < 5.00 | < 5.00 | COC(=O)C(Cc1cccc(OC)c1I)NC(=O)[C@@H](N)Cc1ccccc1 (mixture of isomers) | > 5 | > 5 | –
5.84 | < 5.00 | < 5.00 | COc1cccc(CC(NC(=O)CNCc2ccccc2)C(=O)OC(C)C)c1I (configuration not stated) | > 7 | > 7 | –
< 5.00 | < 5.00 | < 5.00 | COC(=O)C(Cc1cccc(OC)c1I)NC(=O)CN(C)C(=O)OC(C)(C)C (configuration not stated) | – | – | –
